Experimental data taken from patent publication US20100279990A1, “ANTIPROLIFERATIVE COMPOUNDS, COMPOSITIONS AND METHODS OF USE” (RAMOT AT TEL-AVIV UNIVERSITY LTD., priority 2006, published 2010).

Tests used:
[1] = tested on: Con-A activated naive mouse splenocytes; test: Con-A-induced mouse splenocyte proliferation, alamar blue staining; assay type: cell-based; conditions: Splenocyte, 48 hr, alamar blue, read-out: IC50, inhibition in cell viability
Description: This example illustrates cell viability data obtained by separately administering different concentrations of compound (Ia), paroxetine, citalopram, and ecitalopram to Con-A activated naive mouse splenocytes. FIG. 3A depicts the comparative effect of compound (Ia), paroxetine, citalopram and ecitalopram on Con-A-induced mouse splenocyte proliferation using alamar blue staining after 48 hr. Each point represents the mean+/−SE of 5 determinations.

[2] = tested on: human keratinocytes (HaCat cells); test: Viability of human keratinocytes (HaCat cells), neutral red staining; assay type: cell-based; conditions: 24 hr, read-out: IC50, cell viability
[3] = tested on: Caspase 3 activity of LS1034 human colon MDR carcinoma cells; test: Caspase-3 activity in LS1034 human colon MDR carcinoma cells; assay type: cell-based; conditions: 10 or 20 μM, 4 hr after exposure
Procedure: Caspase 3 activity was measured by an enzymatic fluorimetric method using a fluorigenic substrate (Ac-DEVD-AMC), which produces blue fluorescence detected at 360 nm wavelength. […] When AMC is cleaved from the substrate by caspase-3, and caspase-3-like enzymes, it produces a yellow-green fluorescence, which can be monitored by a fluorimeter at 460 nm. The amount of yellow green fluorescence is proportional to the activity of caspase-3 in the cell extract sample.
Whole cell lysate was added to a buffer containing 100 μM peptide substrate, 100 mM HEPES, 10% glycerol, 1 mM EDTA and 10 mM dithiothreitol. Measurements were taken every 5 min for 80 min. These experiments were also monitored in the presence of a specific caspase-3 inhibitor, DEVD-AMC-CHO, which was added after 45 or 60 min to the reaction mixture, to ascertain the specificity of the enzyme.

BXF 1218L = test: Monolayer Assay, PI: BXF 1218L (Bladder); assay type: cell-based, human
Description: (§1) This example illustrates cell proliferation data in the form of IC50, IC70 and IC90 values obtained by exposure of human cancer cell-lines to compound (Ia). […].

CNXF SF268 = test: Monolayer Assay, PI: CNXF SF268; assay type: cell-based, human
Description: as §1

LXF 529L = test: Monolayer Assay, PI: LXF 529L (Lung); assay type: cell-based, human
Description: as §1

LXF 629L = test: Monolayer Assay, PI: LXF 629L (Lung); assay type: cell-based, human
Description: as §1

MAXF MCF7 = test: Monolayer Assay, PI: MAXF MCF7 (Breast); assay type: cell-based, human
Description: as §1

MEXF 462NL = test: Monolayer Assay, PI: MEXF 462NL (Melanoma); assay type: cell-based, human
Description: as §1

OVXF OVCAR3 = test: Monolayer Assay, PI: OVXF OVCAR3 (Ovarian Cancer); assay type: cell-based, human
Description: as §1

PAXF PANC1 = test: Monolayer Assay, PI: PAXF PANC1; assay type: cell-based, human
Description: as §1

PRXF DU145 = test: Monolayer Assay, PI: PRXF DU145 (Prostate); assay type: cell-based, human
Description: as §1

RXF 486L = test: Monolayer Assay, PI: RXF 486L (Renal); assay type: cell-based, human
Description: as §1

[4] = tested on: human colon carcinoma cells (HT29)

`CN[C@H]1CC[C@@H](c2ccc(Cl)c(Cl)c2)c2ccc(C#CCCCO)cc21` [compound (Ia), (1S-cis)-4-(3,4-dichlorophenyl)-7-(5-hydroxy-1-pentyn-1-yl)-1,2,3,4-tetrahydro-N-methyl-1-naphthalenamine hydroiodide] was tested, and the IC50 [1] was 3.9 µM, the IC50 [2] was 18.5 µM and the caspase-3 activity [3] was “dose dependent increase in the activity of caspase-3”. The “Test/Control (%)” value (BXF 1218L; 2.3 μg/ml) was 97%, the Test/Control activity class (BXF 1218L; 2.3 μg/ml) was “− (− (T/C = 50))” and the “Test/Control (%)” value (BXF 1218L; 7.5 μg/ml) was 92%. For the same compound, the Test/Control activity class (BXF 1218L; 7.5 μg/ml) was “− (− (T/C = 50))”, the “Test/Control (%)” value (BXF 1218L; 23. μg/ml) was 4% and the Test/Control activity class (BXF 1218L; 23. μg/ml) was “+++ (+++ (T/C < 10))”. The “Test/Control (%)” value (BXF 1218L; 75. μg/ml) was 5%, the Test/Control activity class (BXF 1218L; 75. μg/ml) was “+++ (+++ (T/C < 10))” and the “Test/Control (%)” value (BXF 1218L; .75 μg/ml) was 101%. The Test/Control activity class (BXF 1218L; .75 μg/ml) was “− (− (T/C = 50))”, the “Test/Control (%)” value (CNXF SF268; 2.3 μg/ml) was 70% and the Test/Control activity class (CNXF SF268; 2.3 μg/ml) was “− (− (T/C = 50))”. The “Test/Control (%)” value (CNXF SF268; 7.5 μg/ml) was 5%, the Test/Control activity class (CNXF SF268; 7.5 μg/ml) was “+++ (+++ (T/C < 10))” and the “Test/Control (%)” value (CNXF SF268; 23. μg/ml) was 4%. For the same compound, the Test/Control activity class (CNXF SF268; 23. μg/ml) was “+++ (+++ (T/C < 10))”, the “Test/Control (%)” value (CNXF SF268; 75. μg/ml) was 3% and the Test/Control activity class (CNXF SF268; 75. μg/ml) was “+++ (+++ (T/C < 10))”. For the same compound, the “Test/Control (%)” value (CNXF SF268; .75 μg/ml) was 91%, the Test/Control activity class (CNXF SF268; .75 μg/ml) was “− (− (T/C = 50))” and the “Test/Control (%)” value (LXF 529L; 2.3 μg/ml) was 97%. The Test/Control activity class (LXF 529L; 2.3 μg/ml) was “− (− (T/C = 50))”, the “Test/Control (%)” value (LXF 529L; 7.5 μg/ml) was 17% and the Test/Control activity class (LXF 529L; 7.5 μg/ml) was “++ (++ (10 <= T/C < 30))”. The “Test/Control (%)” value (LXF 529L; 23. μg/ml) was 3%, the Test/Control activity class (LXF 529L; 23. μg/ml) was “+++ (+++ (T/C < 10))” and the “Test/Control (%)” value (LXF 529L; 75. μg/ml) was 5%. The Test/Control activity class (LXF 529L; 75. μg/ml) was “+++ (+++ (T/C < 10))”, the “Test/Control (%)” value (LXF 529L; .75 μg/ml) was 93% and the Test/Control activity class (LXF 529L; .75 μg/ml) was “− (− (T/C = 50))”. The “Test/Control (%)” value (LXF 629L; 2.3 μg/ml) was 94%, the Test/Control activity class (LXF 629L; 2.3 μg/ml) was “− (− (T/C = 50))” and the “Test/Control (%)” value (LXF 629L; 7.5 μg/ml) was 4%. The Test/Control activity class (LXF 629L; 7.5 μg/ml) was “+++ (+++ (T/C < 10))”, the “Test/Control (%)” value (LXF 629L; 23. μg/ml) was 1% and the Test/Control activity class (LXF 629L; 23. μg/ml) was “+++ (+++ (T/C < 10))”. The “Test/Control (%)” value (LXF 629L; 75. μg/ml) was 2%, the Test/Control activity class (LXF 629L; 75. μg/ml) was “+++ (+++ (T/C < 10))” and the “Test/Control (%)” value (LXF 629L; .75 μg/ml) was 99%. For the same compound, the Test/Control activity class (LXF 629L; .75 μg/ml) was “− (− (T/C = 50))”, the “Test/Control (%)” value (MAXF MCF7; 2.3 μg/ml) was 67% and the Test/Control activity class (MAXF MCF7; 2.3 μg/ml) was “− (− (T/C = 50))”. The “Test/Control (%)” value (MAXF MCF7; 7.5 μg/ml) was 5%, the Test/Control activity class (MAXF MCF7; 7.5 μg/ml) was “+++ (+++ (T/C < 10))” and the “Test/Control (%)” value (MAXF MCF7; 23. μg/ml) was 2%. For the same compound, the Test/Control activity class (MAXF MCF7; 23. μg/ml) was “+++ (+++ (T/C < 10))”, the “Test/Control (%)” value (MAXF MCF7; 75. μg/ml) was 3% and the Test/Control activity class (MAXF MCF7; 75. μg/ml) was “+++ (+++ (T/C < 10))”. The “Test/Control (%)” value (MAXF MCF7; .75 μg/ml) was 93%, the Test/Control activity class (MAXF MCF7; .75 μg/ml) was “− (− (T/C = 50))” and the “Test/Control (%)” value (MEXF 462NL; 2.3 μg/ml) was 107%. For the same compound, the Test/Control activity class (MEXF 462NL; 2.3 μg/ml) was “− (− (T/C = 50))”, the “Test/Control (%)” value (MEXF 462NL; 7.5 μg/ml) was 20% and the Test/Control activity class (MEXF 462NL; 7.5 μg/ml) was “++ (++ (10 <= T/C < 30))”. For the same compound, the “Test/Control (%)” value (MEXF 462NL; 23. μg/ml) was 2%, the Test/Control activity class (MEXF 462NL; 23. μg/ml) was “+++ (+++ (T/C < 10))” and the “Test/Control (%)” value (MEXF 462NL; 75. μg/ml) was 2%. The Test/Control activity class (MEXF 462NL; 75. μg/ml) was “+++ (+++ (T/C < 10))”, the “Test/Control (%)” value (MEXF 462NL; .75 μg/ml) was 102% and the Test/Control activity class (MEXF 462NL; .75 μg/ml) was “− (− (T/C = 50))”. For the same compound, the “Test/Control (%)” value (OVXF OVCAR3; 2.3 μg/ml) was 103%, the Test/Control activity class (OVXF OVCAR3; 2.3 μg/ml) was “− (− (T/C = 50))” and the “Test/Control (%)” value (OVXF OVCAR3; 7.5 μg/ml) was 78%. The Test/Control activity class (OVXF OVCAR3; 7.5 μg/ml) was “− (− (T/C = 50))”, the “Test/Control (%)” value (OVXF OVCAR3; 23. μg/ml) was 4% and the Test/Control activity class (OVXF OVCAR3; 23. μg/ml) was “+++ (+++ (T/C < 10))”. For the same compound, the “Test/Control (%)” value (OVXF OVCAR3; 75. μg/ml) was 5%, the Test/Control activity class (OVXF OVCAR3; 75. μg/ml) was “+++ (+++ (T/C < 10))” and the “Test/Control (%)” value (OVXF OVCAR3; .75 μg/ml) was 109%. The Test/Control activity class (OVXF OVCAR3; .75 μg/ml) was “− (− (T/C = 50))”, the “Test/Control (%)” value (PAXF PANC1; 2.3 μg/ml) was 98% and the Test/Control activity class (PAXF PANC1; 2.3 μg/ml) was “− (− (T/C = 50))”. For the same compound, the “Test/Control (%)” value (PAXF PANC1; 7.5 μg/ml) was 33%, the Test/Control activity class (PAXF PANC1; 7.5 μg/ml) was “+ (+ (30 <= T/C < 50))” and the “Test/Control (%)” value (PAXF PANC1; 23. μg/ml) was 3%. For the same compound, the Test/Control activity class (PAXF PANC1; 23. μg/ml) was “+++ (+++ (T/C < 10))”, the “Test/Control (%)” value (PAXF PANC1; 75. μg/ml) was 4% and the Test/Control activity class (PAXF PANC1; 75. μg/ml) was “+++ (+++ (T/C < 10))”. For the same compound, the “Test/Control (%)” value (PAXF PANC1; .75 μg/ml) was 105%, the Test/Control activity class (PAXF PANC1; .75 μg/ml) was “− (− (T/C = 50))” and the “Test/Control (%)” value (PRXF DU145; 2.3 μg/ml) was 94%. For the same compound, the Test/Control activity class (PRXF DU145; 2.3 μg/ml) was “− (− (T/C = 50))”, the “Test/Control (%)” value (PRXF DU145; 7.5 μg/ml) was 4% and the Test/Control activity class (PRXF DU145; 7.5 μg/ml) was “+++ (+++ (T/C < 10))”. For the same compound, the “Test/Control (%)” value (PRXF DU145; 23. μg/ml) was 1%, the Test/Control activity class (PRXF DU145; 23. μg/ml) was “+++ (+++ (T/C < 10))” and the “Test/Control (%)” value (PRXF DU145; 75. μg/ml) was 1%. The Test/Control activity class (PRXF DU145; 75. μg/ml) was “+++ (+++ (T/C < 10))”, the “Test/Control (%)” value (PRXF DU145; .75 μg/ml) was 102% and the Test/Control activity class (PRXF DU145; .75 μg/ml) was “− (− (T/C = 50))”. For the same compound, the “Test/Control (%)” value (RXF 486L; 2.3 μg/ml) was 103%, the Test/Control activity class (RXF 486L; 2.3 μg/ml) was “− (− (T/C = 50))” and the “Test/Control (%)” value (RXF 486L; 7.5 μg/ml) was 81%. For the same compound, the Test/Control activity class (RXF 486L; 7.5 μg/ml) was “− (− (T/C = 50))”, the “Test/Control (%)” value (RXF 486L; 23. μg/ml) was 9% and the Test/Control activity class (RXF 486L; 23. μg/ml) was “+++ (+++ (T/C < 10))”. The “Test/Control (%)” value (RXF 486L; 75. μg/ml) was 5%, the Test/Control activity class (RXF 486L; 75. μg/ml) was “+++ (+++ (T/C < 10))” and the “Test/Control (%)” value (RXF 486L; .75 μg/ml) was 102%. For the same compound, the Test/Control activity class (RXF 486L; .75 μg/ml) was “− (− (T/C = 50))”, the “potency compared with paroxetine” value ([4]; 10-30 μM, FIG. 2A) was “higher potency than paroxetine” and the “potency compared with paroxetine and fluoxetine” value ([4]; equimolar doses, FIG. 2B) was “significantly more potent than paroxetine and fluoxetine”.
